This passage reports IC50 results from ChEMBL document CHEMBL3639375, “Œ=-lactamase inhibitors” (2013).

The target of experiment [1] is Beta-lactamase (Pseudomonas aeruginosa, UniProt Q8RL90). In words: (§1) Spectrophotometric Assay: Enzyme activities were measured in the presence of the test inhibitor in spectrophotometric assay.
The target in experiment [2] is Beta-lactamase (Klebsiella pneumoniae, UniProt Q93LQ9). Described as §1.
Sequence of Beta-lactamase (Klebsiella pneumoniae, UniProt Q93LQ9) (Q93LQ9 whole entry): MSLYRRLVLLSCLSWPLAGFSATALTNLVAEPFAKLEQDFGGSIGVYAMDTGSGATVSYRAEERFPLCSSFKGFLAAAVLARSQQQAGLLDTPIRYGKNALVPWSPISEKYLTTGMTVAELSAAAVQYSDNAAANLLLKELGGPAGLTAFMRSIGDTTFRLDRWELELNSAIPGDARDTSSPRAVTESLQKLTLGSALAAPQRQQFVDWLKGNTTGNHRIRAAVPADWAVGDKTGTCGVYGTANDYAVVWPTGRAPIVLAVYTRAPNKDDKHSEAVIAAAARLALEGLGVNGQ

Sequence of Beta-lactamase (Pseudomonas aeruginosa, UniProt Q8RL90) (Q8RL90 whole entry): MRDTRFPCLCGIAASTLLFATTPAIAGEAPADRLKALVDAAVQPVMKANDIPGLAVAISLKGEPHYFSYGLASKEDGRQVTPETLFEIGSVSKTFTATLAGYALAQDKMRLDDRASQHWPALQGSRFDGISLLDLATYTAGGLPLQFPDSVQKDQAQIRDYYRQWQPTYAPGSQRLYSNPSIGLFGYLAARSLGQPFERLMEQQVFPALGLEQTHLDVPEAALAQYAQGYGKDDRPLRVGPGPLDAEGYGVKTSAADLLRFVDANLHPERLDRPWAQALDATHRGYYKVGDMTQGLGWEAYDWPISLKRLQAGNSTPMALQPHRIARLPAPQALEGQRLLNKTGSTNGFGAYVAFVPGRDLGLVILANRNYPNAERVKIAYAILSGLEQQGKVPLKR

Consider `O=C(Nc1ccncc1)[C@@H]1CCC2CN1C(=O)N2OS(=O)(=O)O` (stereo partly drawn), for which the half-inhibitory concentration (IC50) at Beta-lactamase [1] turned out to be 0.006 µM. Regarding `O=C(Nc1ccc2c(c1)CCNC2)[C@@H]1CCC2CN1C(=O)N2OS(=O)(=O)O` (stereo partly drawn), the half-maximal inhibitory concentration (IC50) at Beta-lactamase [2] was found to be 0.019 µM.

As for `O=C(NC1CCCNCC1)[C@@H]1CCC2CN1C(=O)N2OS(=O)(=O)O` (stereo partly drawn), the IC50 at Beta-lactamase [1] was found to be 0.069 µM.
